Test results as given in patent publication US12605344B2, “Nanoparticles encapsulating soluble biologics, therapeutics, and imaging agents” (The Trustees of Princeton University, priority 2014, dated 2026).

Tests used:
[1] = Solubility in organic solvents; format: physicochemical; conditions: in chloroform and acetone
[2] = Maximum loading giving stable nanoparticles (FNP); format: physicochemical; conditions: PBA-b-PAA nanoparticles by FNP
Source text: Increasing the percentage of core material necessitated the formation of larger particles. […] This may be because the addition of core material allows the PAA to more tightly pack due to charge shielding effects. Very high loadings of both lysozyme and vancomycin were obtained. Loading of lysozyme as high as 75 wt % was obtained without the formation of large precipitates, however, the particles were too large to analyze using dynamic light scattering (DLS).

Row | Compound | solubility [1] | loading obtained with stable particles / without large precipitates [2]
1 | CN[C@H](CC(C)C)C(=O)N[C@H]1C(=O)N[C@@H](CC(N)=O)C(=O)N[C@H]2C(=O)N[C@H]3C(=O)N[C@H](C(=O)N[C@H](C(=O)O)c4cc(O)cc(O)c4-c4cc3ccc4O)[C@H](O)c3ccc(c(Cl)c3)Oc3cc2cc(c3O[C@@H]2O[C@H](CO)[C@@H](O)[C@H](O)[C@H]2O[C@H]2C[C@](C)(N)[C@H](O)[C@H](C)O2)Oc2ccc(cc2Cl)[C@H]1O [Vancomycin, vancomycin] | poorly soluble | up to 90 wt %
2 | lysozyme |  | ≤ 75 wt %
